# Measurements published in patent US12365668B2, “Aminopyrazine diol compounds as PI3K-y inhibitors” (Incyte Corporation, priority 2018, dated 2025).
# Where two headings read alike, the source gives them in different places.
# Legend:
# [1] = molecular target: PI3Kγ (p110γ) Recombinant Human Protein (Homo sapiens (Human), UniProt P48736); experiment: PI3K-γ Scintillation Proximity Assay; assay type: biochemical; details: 20 μM PIP2, 2 μM ATP, SPA
# From the text: Example B. PI3K-γ Scintillation Proximity Assay Materials: [γ-^33P]ATP (10 mCi/mL) and Wheat Germ Agglutinin (WGA) YSi SPA Scintillation Beads was purchased from Perkin Elmer (Waltham, MA). Lipid kinase substrate, D-myo-Phosphatidylinositol 4,5-bisphosphate (PtdIns(4,5)P2)D (+)-sn-1,2-di-O-octanoylglyceryl, 3-O-phospho linked (PIP2), CAS 204858-53-7, was purchased from Echelon Biosciences (Salt Lake City, UT). PI3Kγ (p110γ) Recombinant Human Protein was purchased from Life technology (Grand Island, NY). ATP, MgCl2, DTT, EDTA, MOPS and CHAPS were purchased from Sigma Aldrich (St. Louis, MO). The kinase reaction was conducted in polystyrene 384-well Greiner Bio-one white plate from Thermo Fisher Scientific in a final volume of 25 μL. Inhibitors were first diluted serially in DMSO and added to the plate wells before the addition of other reaction components. The final concentration of DMSO in the assay was 2%. The PI3Kγ assay was carried out at room temperature in 20 mM MOPS, pH 6.7, 10 mM MgCl2, 5 mM DTT and CHAPS 0.03%. Reactions were initiated by the addition of ATP, the final reaction mixture consisted of 20 μM PIP2, 2 μM ATP, 0.5 μCi [γ-^33P] ATP, 13 nM PI3Kγ. Reactions were incubated for 120 min and terminated by the addition of 40 μL SPA beads suspended in quench buffer: 163 mM potassium phosphate pH 7.8, 20% glycerol, 25 mM EDTA. The final concentration of SPA beads is 1.0 mg/mL. After the plate sealing, plates were shaken overnight at room temperature and centrifuged at 1500 rpm for 10 min, the radioactivity of the product was determined by scintillation counting on Topcount (Perkin-Elmer). IC50 determination was performed by fitting the curve of percent of the solvent control activity versus the log of the inhibitor concentration using the GraphPad Prism 6.0 software.
# [2] = molecular target: PI3Kδ (p110δ/p85α) Recombinant Human Protein (Homo sapiens (Human), UniProt O00329); experiment: PI3Kδ Scintillation Proximity Assay; assay type: biochemical; details: 20 μM PIP2, 2 μM ATP, SPA
# From the text: Example C. PI3Kδ Scintillation Proximity Assay Materials: [γ-^33P]ATP (10 mCi/mL) and Wheat Germ Agglutinin (WGA) YSi SPA Scintillation Beads was purchased from Perkin Elmer (Waltham, MA). Lipid kinase substrate, D-myo-Phosphatidylinositol 4,5-bisphosphate (PtdIns(4,5)P2)D (+)-sn-1,2-di-O-octanoylglyceryl, 3-O-phospho linked (PIP2), CAS 204858-53-7, was purchased from Echelon Biosciences (Salt Lake City, UT). PI3Kδ (p110δ/p85α) Recombinant Human Protein was purchased from Eurofins (St Charles, MO). ATP, MgCl2, DTT, EDTA, MOPS and CHAPS were purchased from Sigma Aldrich (St. Louis, MO). The kinase reaction was conducted in polystyrene 384-well Greiner Bio-one white plate from Thermo Fisher Scientific in a final volume of 25 μL. Inhibitors were first diluted serially in DMSO and added to the plate wells before the addition of other reaction components. The final concentration of DMSO in the assay was 2%. The PI3Kδ assay was carried out at room temperature in 20 mM MOPS, pH 6.7, 10 mM MgCl2, 5 mM DTT and CHAPS 0.03%. Reactions were initiated by the addition of ATP, the final reaction mixture consisted of 20 μM PIP2, 2 μM ATP, 0.5 μCi [γ-^33P] ATP, 3.4 nM PI3Kδ. Reactions were incubated for 120 min and terminated by the addition of 40 μL SPA beads suspended in quench buffer: 163 mM potassium phosphate pH 7.8, 20% glycerol, 25 mM EDTA. The final concentration of SPA beads is 1.0 mg/mL. After the plate sealing, plates were shaken overnight at room temperature and centrifuged at 1500 rpm for 10 min, the radioactivity of the product was determined by scintillation counting on Topcount (PerkinElmer). IC50 determination was performed by fitting the curve of percent of the solvent control activity versus the log of the inhibitor concentration using the GraphPad Prism 6.0 software.
# [3] = tested on: Phosphorylated Ribosomal Protein S6 (RPS6) in THP-1 cells; experiment: THP-1 RPS6 ELISA Assay; assay type: cell-based, Human; details: serum starved, 2 hours compound, 10 nM MCP-1 for 15 minutes, Phospho-RPS6 ELISA, read-out: PI3Kγ_THP1_RPS6_ELISA IC50
# Experimental: Example A. THP-1 RPS6 ELISA Assay
# To measure the Phosphorylated Ribosomal Protein S6 (RPS6) in cell lysates, THP-1 cells (Human Acute Monocytic Leukemia) are purchased from ATCC (Manassas, VA) and maintained in RPMI with 10% FBS (Gibco/Life Technologies, Carlsbad, CA). For the assay, THP-1 cells are serum starved overnight in RPMI, then plated in RPMI (2×10^5 cells/well in 90 μL) into 96-well flat-bottom tissue culture treated plates (Corning, Corning, NY), in the presence or absence of a concentration range of test compounds. Covered plates are incubated for 2 hours at 37° C., 5% CO2 then treated with or without 10 nM MCP-1(MYBioSource, San Diego, CA) for 15 minutes at 37° C., 5% CO2. Plates are centrifuged at 1600 RPM and supernatants are removed. Cells are lysed in Lysis Buffer (Cell Signaling, Danvers, MA) with Protease Inhibitor (Calbiochem/EMD, Germany), PMSF (Sigma, St Louis MO), HALTS (Thermo Fisher, Rockford, IL) for 30 min on wet ice. Cell lysates are frozen at −80° C. before testing. The lysates are tested in the Human/Mouse/Rat Phospho-RPS6 ELISA (R&D Systems, Inc. Minn, MN). The plate is measured using a microplate reader (SpectraMax M5—Molecular Devices, LLC Sunnyvale, CA) set to 450 nm with a wavelength correction of 540. IC50 determination is performed by fitting the curve of inhibitor percent inhibition versus the log of the inhibitor concentration using the GraphPad Prism 5.0 software.
# Chain of PI3Kδ (p110δ/p85α) Recombinant Human Protein (O00329 whole entry): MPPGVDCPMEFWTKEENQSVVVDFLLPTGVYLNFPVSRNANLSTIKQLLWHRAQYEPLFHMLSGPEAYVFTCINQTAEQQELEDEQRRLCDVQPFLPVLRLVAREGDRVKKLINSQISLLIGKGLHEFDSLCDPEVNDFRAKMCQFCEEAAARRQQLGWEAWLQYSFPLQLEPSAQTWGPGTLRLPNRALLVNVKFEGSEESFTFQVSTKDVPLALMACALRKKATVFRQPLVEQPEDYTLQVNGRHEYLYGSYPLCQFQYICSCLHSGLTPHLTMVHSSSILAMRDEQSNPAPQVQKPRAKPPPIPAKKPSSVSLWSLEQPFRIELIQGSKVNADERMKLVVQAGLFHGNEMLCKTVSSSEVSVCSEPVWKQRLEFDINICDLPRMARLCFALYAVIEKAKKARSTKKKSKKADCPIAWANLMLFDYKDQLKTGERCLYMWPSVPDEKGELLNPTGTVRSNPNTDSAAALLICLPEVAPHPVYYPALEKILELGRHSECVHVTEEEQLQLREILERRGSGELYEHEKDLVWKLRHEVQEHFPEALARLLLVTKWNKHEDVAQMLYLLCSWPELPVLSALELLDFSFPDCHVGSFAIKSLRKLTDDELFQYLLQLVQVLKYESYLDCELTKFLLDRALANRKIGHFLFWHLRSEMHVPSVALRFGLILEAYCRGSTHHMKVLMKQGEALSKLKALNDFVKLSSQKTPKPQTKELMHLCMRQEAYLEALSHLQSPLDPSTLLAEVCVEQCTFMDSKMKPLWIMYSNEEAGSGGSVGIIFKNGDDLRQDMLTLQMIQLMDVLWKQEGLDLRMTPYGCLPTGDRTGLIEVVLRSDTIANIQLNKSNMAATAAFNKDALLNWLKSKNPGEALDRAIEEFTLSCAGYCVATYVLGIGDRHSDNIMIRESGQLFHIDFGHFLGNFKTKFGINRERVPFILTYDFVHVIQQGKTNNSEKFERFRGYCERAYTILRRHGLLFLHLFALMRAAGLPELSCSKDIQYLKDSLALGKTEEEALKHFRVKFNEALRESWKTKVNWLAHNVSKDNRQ
# Chain of PI3Kδ (p110δ/p85α) Recombinant Human Protein (P27986 whole entry partner): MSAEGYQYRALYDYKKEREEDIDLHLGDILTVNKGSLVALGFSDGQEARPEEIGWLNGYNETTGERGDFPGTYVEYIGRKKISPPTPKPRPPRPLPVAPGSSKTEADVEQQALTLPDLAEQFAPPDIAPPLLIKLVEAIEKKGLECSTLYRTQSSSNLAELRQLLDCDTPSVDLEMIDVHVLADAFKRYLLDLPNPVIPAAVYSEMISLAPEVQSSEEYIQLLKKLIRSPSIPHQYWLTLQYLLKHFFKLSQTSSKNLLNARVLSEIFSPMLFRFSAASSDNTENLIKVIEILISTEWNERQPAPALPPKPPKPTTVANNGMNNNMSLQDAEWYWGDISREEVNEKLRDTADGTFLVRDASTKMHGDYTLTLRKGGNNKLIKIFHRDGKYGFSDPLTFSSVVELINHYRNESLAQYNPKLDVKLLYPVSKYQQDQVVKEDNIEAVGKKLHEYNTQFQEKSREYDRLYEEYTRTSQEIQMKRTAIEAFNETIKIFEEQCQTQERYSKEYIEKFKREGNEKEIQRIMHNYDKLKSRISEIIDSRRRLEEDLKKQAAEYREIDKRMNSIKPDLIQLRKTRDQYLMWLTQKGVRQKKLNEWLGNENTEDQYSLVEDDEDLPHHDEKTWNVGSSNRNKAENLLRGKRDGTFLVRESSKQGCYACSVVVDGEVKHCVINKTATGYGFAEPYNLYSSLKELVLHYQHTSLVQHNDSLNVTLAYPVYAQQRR
# Chain of PI3Kγ (p110γ) Recombinant Human Protein (P48736 whole entry): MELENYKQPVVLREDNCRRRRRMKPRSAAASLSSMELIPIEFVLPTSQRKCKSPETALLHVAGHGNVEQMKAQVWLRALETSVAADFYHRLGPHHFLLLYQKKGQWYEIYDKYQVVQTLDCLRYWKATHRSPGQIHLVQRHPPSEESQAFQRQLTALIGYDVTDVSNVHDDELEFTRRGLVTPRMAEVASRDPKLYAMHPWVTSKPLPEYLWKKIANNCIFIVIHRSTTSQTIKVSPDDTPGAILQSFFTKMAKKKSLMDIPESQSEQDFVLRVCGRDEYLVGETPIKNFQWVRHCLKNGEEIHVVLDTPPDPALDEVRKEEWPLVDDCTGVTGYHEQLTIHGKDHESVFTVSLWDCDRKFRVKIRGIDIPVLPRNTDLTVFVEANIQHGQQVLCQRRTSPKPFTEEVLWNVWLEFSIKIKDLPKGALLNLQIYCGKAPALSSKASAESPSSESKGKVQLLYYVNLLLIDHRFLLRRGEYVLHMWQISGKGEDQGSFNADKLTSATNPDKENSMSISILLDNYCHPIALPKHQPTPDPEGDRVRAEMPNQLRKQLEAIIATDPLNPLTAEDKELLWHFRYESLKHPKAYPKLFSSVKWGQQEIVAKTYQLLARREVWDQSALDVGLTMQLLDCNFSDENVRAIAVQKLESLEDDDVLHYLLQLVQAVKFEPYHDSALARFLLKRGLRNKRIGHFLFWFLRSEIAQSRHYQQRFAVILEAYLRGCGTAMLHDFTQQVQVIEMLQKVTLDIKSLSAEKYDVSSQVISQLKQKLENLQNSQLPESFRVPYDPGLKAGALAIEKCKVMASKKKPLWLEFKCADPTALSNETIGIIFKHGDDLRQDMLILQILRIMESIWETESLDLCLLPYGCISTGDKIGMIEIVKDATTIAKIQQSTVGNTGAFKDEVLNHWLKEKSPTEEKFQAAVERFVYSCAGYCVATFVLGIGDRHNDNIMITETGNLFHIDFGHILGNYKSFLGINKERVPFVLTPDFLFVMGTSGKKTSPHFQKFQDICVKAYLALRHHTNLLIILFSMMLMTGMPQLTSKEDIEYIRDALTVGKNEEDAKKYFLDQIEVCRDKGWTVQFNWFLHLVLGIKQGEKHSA
SMILES,IC50 [1] [nM],IC50 [2] [nM],IC50 ([3]; Homo sapiens) [nM],IC50 [3] [nM]
"Cc1ccc(C(O)(CO)C(F)(F)F)cc1-c1cnc(N)c(-n2cncn2)n1 (single isomer, unassigned) [Example 15, 2-(3-(5-Amino-6-(1H-1,2,4-triazol-1-yl)pyrazin-2-yl)-4-methylphenyl)-3,3,3-trifluoropropane-1,2-diol]",≤ 100,≤ 100,100 to 500,
"Cc1ccc(C(O)(CO)C(F)(F)F)cc1-c1cnc(N)c(-n2nccn2)n1 (centres unmarked) [Example 14, 2-(3-(5-Amino-6-(1H-1,2,3-triazol-2-yl)pyrazin-2-yl)-4-methylphenyl)-3,3,3-trifluoropropane-1,2-diol]",≤ 100,≤ 100,,< 100
"Cc1ccc([C@](O)(CO)C(F)F)cc1-c1cnc(N)c(C(=O)N2CCC[C@@H]2CO)n1 [Example 45, (3-Amino-6-(5-((S)-1,1-difluoro-2,3-dihydroxypropan-2-yl)-2-methylphenyl)pyrazin-2-yl)((R)-2-(hydroxymethyl)pyrrolidin-1-yl)methanone]",,500 to 2000,,100 to 500
